Columns and labels:
[1] = system: antibodies in sera from SARS patients (sera 1a, 1b, 2, 6, 37, 62, London, SARS-yellow, SARS-green); format: binding, human; parameters: Binding of serum 6 to linear peptides of protein X1 of SARS-CoV Urbani / Binding of serum 37 to linear peptides of protein X1 of SARS-CoV Urbani / Binding of serum 6 to looped/cyclic peptide (PEPSCAN-ELISA) / Binding of serum 37 to looped/cyclic peptide (PEPSCAN-ELISA) / Binding of serum 37 to looped/cyclic peptides of protein X1 of SARS-CoV Urbani / Binding of serum 6 to linear peptides of protein X2 / Binding of serum 37 to linear peptides of protein X2 / Binding of serum 37 to looped/cyclic peptides of protein X2 of SARS-CoV Urbani / Binding of serum 6 to linear peptides of protein M of SARS-CoV Urbani / Binding of serum 37 to linear peptides of protein M of SARS-CoV Urbani / Binding of serum 6 to looped/cyclic peptides of protein M of SARS-CoV Urbani / Binding of serum 37 to looped/cyclic peptides of protein M of SARS-CoV Urbani / Binding of serum 6 to linear peptides of protein X3 of SARS-CoV Urbani / Binding of serum 37 to linear peptides of protein X3 of SARS-CoV Urbani / Binding of serum 37 to looped/cyclic peptides of protein X3 of SARS-CoV Urbani / Binding of serum 6 to linear peptides of protein X4 of SARS-CoV Urbani / Binding of serum 37 to linear peptides of protein X4 of SARS-CoV Urbani / Binding of serum 37 to looped/cyclic peptides of protein X4 of SARS-CoV Urbani / Binding of serum 6 to linear peptides of protein X5 of SARS-CoV Urbani / Binding of serum 37 to linear peptides of protein X5 of SARS-CoV Urbani / Binding of serum 37 to looped/cyclic peptides of protein X5 of SARS-CoV Urbani / Binding of serum 6 to linear peptides of protein N of SARS-CoV Urbani / Binding of serum 37 to linear peptides of protein N of SARS-CoV Urbani / Binding of serum 6 to linear peptide (PEPSCAN-ELISA) / Binding of serum 1a to looped/cyclic peptides of protein N of SARS-CoV Urbani / Binding of serum 1b to looped/cyclic peptides of protein N of SARS-CoV Urbani / Binding of serum 2 to looped/cyclic peptides of protein N of SARS-CoV Urbani / Binding of serum 6 to looped/cyclic peptides of protein N of SARS-CoV Urbani / Binding of serum 37 to looped/cyclic peptides of protein N of SARS-CoV Urbani / Binding of serum 62 to looped/cyclic peptides of protein N of SARS-CoV Urbani / Binding of serum London to looped/cyclic peptides of protein N of SARS-CoV Urbani / Binding of serum SARS-green to looped/cyclic peptides of protein N of SARS-CoV Urbani: unit not given here
[2] = system: rabbit serum obtained by immunizing a rabbit with the SARS-CoV strain Frankfurt 1; format: binding; parameters: Binding of a rabbit serum to linear peptides / Binding of a rabbit serum to looped peptides / Rabbit serum linear peptides / Rabbit serum looped peptides / Binding of a rabbit serum to linear peptides of protein N of SARS-CoV Urbani (Rabbit serum linear peptides) / Binding of a rabbit serum to looped/cyclic peptides of protein N of SARS-CoV Urbani (Rabbit serum looped peptides): unit not given here
[3] = system: control sera (pooled serum of ten healthy LUMC hospital workers; commercial negative donor pooled serum from the Dutch bloodbank); format: binding, human; parameters: Binding of Control serum LUMC to linear peptides / Binding of Control serum Blood-bank to linear peptides / Binding of Control serum LUMC to looped peptides / Binding of Control Serum Blood-Bank to Looped peptides / Binding of Control serum LUMC to linear peptides of the protein M of SARS-CoV Urbani / Binding of Control serum Blood-bank to linear peptides of the protein M of SARS-CoV Urbani / Binding of Control serum LUMC to looped peptides of the protein M of SARS-CoV Urbani / Binding of Control Serum Blood-Bank to Looped peptides of the protein M of SARS-CoV Urbani: unit not given here

TCTPNVTINCQDPAG
0.5: Rabbit serum linear peptides [2] | Binding of Control serum LUMC to linear peptides [3]
0.6: Binding of serum 1b to linear peptides of protein X5 of SARS-CoV Urbani [1] | Binding of serum 2 to linear peptides of protein X5 of SARS-CoV Urbani [1]
0.2: Binding of serum 1a to looped/cyclic peptides of protein X5 of SARS-CoV Urbani [1] | Binding of serum SARS-green to looped/cyclic peptides of protein X5 of SARS-CoV Urbani [1] | Binding of serum SARS-yellow to linear peptides of protein X5 of SARS-CoV Urbani [1] | Binding of Control serum LUMC to looped peptides [3]
0.8: Binding of serum 1a to linear peptides of protein X5 of SARS-CoV Urbani [1] | Binding of serum 6 to linear peptides of protein X5 of SARS-CoV Urbani [1] | Binding of serum 62 to linear peptides of protein X5 of SARS-CoV Urbani [1] | Binding of serum London to linear peptides of protein X5 of SARS-CoV Urbani [1] | Binding of serum SARS-green to linear peptides of protein X5 of SARS-CoV Urbani [1]
0.0: Binding of serum 1b to looped/cyclic peptides of protein X5 of SARS-CoV Urbani [1] | Binding of serum SARS-yellow to looped/cyclic peptides of protein X5 of SARS-CoV Urbani [1] | Rabbit serum looped peptides [2]
0.4: Binding of Control Serum Blood-Bank to Looped peptides [3]
0.7: Binding of serum 37 to linear peptides of protein X5 of SARS-CoV Urbani [1] | Binding of Control serum Blood-bank to linear peptides [3]
0.1: Binding of serum 2 to looped/cyclic peptides of protein X5 of SARS-CoV Urbani [1] | Binding of serum 6 to looped/cyclic peptides of protein X5 of SARS-CoV Urbani [1] | Binding of serum 37 to looped/cyclic peptides of protein X5 of SARS-CoV Urbani [1] | Binding of serum 62 to looped/cyclic peptides of protein X5 of SARS-CoV Urbani [1] | Binding of serum London to looped/cyclic peptides of protein X5 of SARS-CoV Urbani [1]

TCTSTHFAFACADGT
0.3: Binding of serum London to looped/cyclic peptides of protein X4 of SARS-CoV Urbani [1]
0.8: Binding of serum 1a to linear peptides of protein X4 of SARS-CoV Urbani [1] | Binding of serum 1a to looped/cyclic peptides of protein X4 of SARS-CoV Urbani [1] | Binding of serum 2 to looped/cyclic peptides of protein X4 of SARS-CoV Urbani [1] | Binding of serum 62 to looped/cyclic peptides of protein X4 of SARS-CoV Urbani [1] | Binding of serum London to linear peptides of protein X4 of SARS-CoV Urbani [1] | Binding of serum SARS-yellow to looped/cyclic peptides of protein X4 of SARS-CoV Urbani [1] | Binding of Control serum Blood-bank to linear peptides [3] | Binding of Control serum LUMC to looped peptides [3]
0.5: Binding of serum 2 to linear peptides of protein X4 of SARS-CoV Urbani [1] | Binding of serum SARS-green to looped/cyclic peptides of protein X4 of SARS-CoV Urbani [1] | Rabbit serum linear peptides [2]
0.9: Binding of serum 62 to linear peptides of protein X4 of SARS-CoV Urbani [1] | Binding of Control serum LUMC to linear peptides [3]
0.6: Binding of serum 1b to looped/cyclic peptides of protein X4 of SARS-CoV Urbani [1] | Binding of serum 6 to looped/cyclic peptides of protein X4 of SARS-CoV Urbani [1] | Binding of serum SARS-green to linear peptides of protein X4 of SARS-CoV Urbani [1] | Binding of serum SARS-yellow to linear peptides of protein X4 of SARS-CoV Urbani [1]
0.7: Binding of serum 1b to linear peptides of protein X4 of SARS-CoV Urbani [1] | Binding of serum 6 to linear peptides of protein X4 of SARS-CoV Urbani [1] | Binding of serum 37 to linear peptides of protein X4 of SARS-CoV Urbani [1] | Binding of serum 37 to looped/cyclic peptides of protein X4 of SARS-CoV Urbani [1] | Rabbit serum looped peptides [2] | Binding of Control Serum Blood-Bank to Looped peptides [3]

TDSGFAAYNRYRIGN
0.2: Binding of serum London to looped/cyclic peptides of protein M of SARS-CoV Urbani [1]
0.3: Binding of serum London to linear peptides of protein M of SARS-CoV Urbani [1] | Binding of serum SARS-green to linear peptides of protein M of SARS-CoV Urbani [1] | Binding of Control serum LUMC to linear peptides of the protein M of SARS-CoV Urbani [3]
0.0: Binding of serum SARS-yellow to linear peptides of protein M of SARS-CoV Urbani [1] | Rabbit serum linear peptides [2]
0.7: Binding of serum 1a to looped/cyclic peptides of protein M of SARS-CoV Urbani [1] | Binding of serum 37 to looped/cyclic peptides of protein M of SARS-CoV Urbani [1] | Binding of serum 62 to looped/cyclic peptides of protein M of SARS-CoV Urbani [1] | Binding of Control serum Blood-bank to linear peptides of the protein M of SARS-CoV Urbani [3] | Binding of Control serum LUMC to looped peptides of the protein M of SARS-CoV Urbani [3]
0.5: Binding of serum 1b to looped/cyclic peptides of protein M of SARS-CoV Urbani [1] | Binding of serum 2 to linear peptides of protein M of SARS-CoV Urbani [1] | Rabbit serum looped peptides [2]
0.4: Binding of serum 1b to linear peptides of protein M of SARS-CoV Urbani [1] | Binding of serum 6 to linear peptides of protein M of SARS-CoV Urbani [1] | Binding of serum 37 to linear peptides of protein M of SARS-CoV Urbani [1]
0.8: Binding of serum SARS-yellow to looped/cyclic peptides of protein M of SARS-CoV Urbani [1]
0.1: Binding of serum SARS-green to looped/cyclic peptides of protein M of SARS-CoV Urbani [1]
0.9: Binding of serum 6 to looped/cyclic peptides of protein M of SARS-CoV Urbani [1]
0.6: Binding of serum 1a to linear peptides of protein M of SARS-CoV Urbani [1] | Binding of serum 2 to looped/cyclic peptides of protein M of SARS-CoV Urbani [1] | Binding of serum 62 to linear peptides of protein M of SARS-CoV Urbani [1] | Binding of Control Serum Blood-Bank to Looped peptides of the protein M of SARS-CoV Urbani [3]

TDTIVVTEGDGISTP
0.3: Binding of serum 1b to looped/cyclic peptides of protein X1 of SARS-CoV Urbani [1] | Binding of serum 37 to looped/cyclic peptides of protein X1 of SARS-CoV Urbani [1] | Binding of serum 62 to looped/cyclic peptides of protein X1 of SARS-CoV Urbani [1] | Binding of serum SARS-green to linear peptides of protein X1 of SARS-CoV Urbani [1] | Binding of a rabbit serum to looped peptides [2]
0.5: Binding of serum 1b to linear peptides of protein X1 of SARS-CoV Urbani [1] | Binding of serum 6 to linear peptides of protein X1 of SARS-CoV Urbani [1] | Binding of serum 37 to linear peptides of protein X1 of SARS-CoV Urbani [1] | Binding of Control serum Blood-bank to linear peptides [3] | Binding of Control serum LUMC to linear peptides [3]
0.6: Binding of serum 1a to linear peptides of protein X1 of SARS-CoV Urbani [1]
0.4: Binding of serum 1a to looped/cyclic peptides of protein X1 of SARS-CoV Urbani [1] | Binding of serum 2 to linear peptides of protein X1 of SARS-CoV Urbani [1] | Binding of serum 62 to linear peptides of protein X1 of SARS-CoV Urbani [1] | Binding of serum SARS-yellow to looped/cyclic peptides of protein X1 of SARS-CoV Urbani [1] | Binding of Control Serum Blood-Bank to Looped peptides [3] | Binding of Control serum LUMC to looped peptides [3]
0.1: Binding of serum London to looped/cyclic peptides of protein X1 of SARS-CoV Urbani [1] | Binding of a rabbit serum to linear peptides [2]
0.2: Binding of serum 2 to looped/cyclic peptides of protein X1 of SARS-CoV Urbani [1] | Binding of serum 6 to looped/cyclic peptides of protein X1 of SARS-CoV Urbani [1] | Binding of serum London to linear peptides of protein X1 of SARS-CoV Urbani [1] | Binding of serum SARS-green to looped/cyclic peptides of protein X1 of SARS-CoV Urbani [1] | Binding of serum SARS-yellow to linear peptides of protein X1 of SARS-CoV Urbani [1]

TEGDGISTPKLKEDY
0.2: Binding of serum 6 to linear peptides of protein X1 of SARS-CoV Urbani [1] | Binding of serum London to linear peptides of protein X1 of SARS-CoV Urbani [1] | Binding of serum London to looped/cyclic peptides of protein X1 of SARS-CoV Urbani [1] | Binding of Control serum Blood-bank to linear peptides [3] | Binding of Control serum LUMC to linear peptides [3]
0.5: Binding of serum 1a to linear peptides of protein X1 of SARS-CoV Urbani [1] | Binding of serum 1a to looped/cyclic peptides of protein X1 of SARS-CoV Urbani [1] | Binding of serum 2 to looped/cyclic peptides of protein X1 of SARS-CoV Urbani [1] | Binding of a rabbit serum to looped peptides [2] | Binding of Control Serum Blood-Bank to Looped peptides [3] | Binding of Control serum LUMC to looped peptides [3]
0.3: Binding of serum 1b to linear peptides of protein X1 of SARS-CoV Urbani [1] | Binding of serum 62 to linear peptides of protein X1 of SARS-CoV Urbani [1] | Binding of serum SARS-green to looped/cyclic peptides of protein X1 of SARS-CoV Urbani [1] | Binding of serum SARS-yellow to looped/cyclic peptides of protein X1 of SARS-CoV Urbani [1]
0.0: Binding of serum SARS-yellow to linear peptides of protein X1 of SARS-CoV Urbani [1]
0.1: Binding of serum SARS-green to linear peptides of protein X1 of SARS-CoV Urbani [1] | Binding of a rabbit serum to linear peptides [2]
0.4: Binding of serum 1b to looped/cyclic peptides of protein X1 of SARS-CoV Urbani [1] | Binding of serum 2 to linear peptides of protein X1 of SARS-CoV Urbani [1] | Binding of serum 6 to looped/cyclic peptides of protein X1 of SARS-CoV Urbani [1] | Binding of serum 37 to linear peptides of protein X1 of SARS-CoV Urbani [1] | Binding of serum 37 to looped/cyclic peptides of protein X1 of SARS-CoV Urbani [1] | Binding of serum 62 to looped/cyclic peptides of protein X1 of SARS-CoV Urbani [1]
